Assay results taken from US7425579B2, “Methods for inhibiting activity of polyamine transporters” (Universite Laval, priority 1998, dated 2008).
Like-named read-outs stand apart in the source and are kept apart here.

Legend:
[1] = tested on: CHO-K1, Jurkat, L1210, MDA-MB-231, ZR-75-1 and MCF-7 cells; test: Reversal of DFMO-induced cytostasis by exogenous spermidine in a variety of mammalian cell lines; assay type: cell-based; settings: most cell lines; concentrations as low as
Protocol: FIGS. 5A, 5B, 5C, 5D, 5E and 5F are graphs representing that a compound used in a method according to a preferred embodiment antagonizes rescue of DFMO-induced cytostasis by exogenous spermidine. In particular, CHO-K1 (A), Jurkat (B), L1210 (C), MDA-MB-231 (D), ZR-75-1 (E) and MCF-7 cells (F) were grown to near confluency or saturation (for 4 to 11 d according to the cell line considered) with the indicated concentrations of spermidine in medium containing 1 mM aminoguanidine, in the presence of DFMO (●), BNSD-X (□), DFMO plus BNSD-X (▪), or in the absence of either agent (∘), and total DNA content per culture was then determined. The optimal concentration of either DFMO (1 to 5 mM) or BNSD-X (50 or 100 μM) was used for the each cell line as determined in pilot experiments. Data are presented as the mean±SD for triplicate cultures from one out of at least three identical experiments for each cell line;
To determine the ability of polyamine transport antagonists to potentiate DFMO-induced inhibition of cell proliferation in the presence of exogenous polyamines, cells were grown for the indicated period in growth medium supplemented with 1 mM aminoguanidine, and either DFMO (1 to 5 mM), the indicated transport inhibitor (50 or 100 μM), or the combination thereof, as well as increasing concentrations of spermidine (0.1 to 300 μM). Fresh medium was added every other day, and cell mass was determined at various time points during the period of exponential growth, or at the end of the experimental period. For the latter experiments, the FBS supplement was replaced with dextran-coated charcoal-treated FBS (5%, v/v) plus 0.5 μg/ml insulin in the case of T-47D, ZR-75-1 and MCF-7 cells (U.S. Pat. No. 6,083,496).

[2] = tested on: mammalian polyamine carrier; test: Determination of polyamine uptake activity: inhibition of diamine and polyamine transport in T-47D cells; assay type: cell-based, human
Protocol: The rate of diamine and polyamine transport was determined in T-47D and ZR-75-1 cells incubated in serum-free RPMI 1640 medium as previously described (U.S. Pat. No. 6,083,496; Covassin et al. (1999) Bioorg. Med. Chem. Lett. 9, 1709-1714), using 20 μM [^3H]putrescine (179 Ci/mol), 5 μM [^3H]spermidine (246 Ci/mol) and 3 μM [^14C]spermine (300-400 mCi/mol) respectively, as substrates for a 20-min assay period. Uptake activity was expressed per amount of DNA as fluorometrically determined using 3,5-diaminobenzoic acid (Simard et al. (1990) Endocrinology 126, 3223-3231). Kinetic parameters of polyamine transport inhibition for the transport antagonists were determined by Lineweaver-Burke analysis of uptake activity in the presence of 0.1 μM [^3H]putrescine, 0.03 μM [^3H]spermidine, and 0.01 μM [^14C]spermine plus increasing concentrations of nonradioactive substrate. For competitive inhibitors, Ki values were estimated by iterative curve fitting for sigmoidal equations describing transport rates in the presence of increasing concentrations of antagonist, using the Cheng-Prusoff equation for competitive inhibition (U.S. Pat. No. 6,083,496).
The ability of BSD and BNSD compounds to inhibit uptake of the main natural substrates of the mammalian polyamine carrier, namely putrescine, spermidine and spermine, was evaluated using T-47D human breast cancer cells (Table 1).
Data are presented as the mean±SD of at least two independent determinations of IC50 values, each based on triplicate determinations of uptake velocity at increasing inhibitor concentrations.
The potency of the polyamines and their xylylated dimers as competitive inhibitors of spermidine transport was evaluated in the T-47D human breast cancer cell line (Table 2).

## NCCCCNCCCN [Spermidine, reference compound]
[1]
  spermidine concentration that completely counteracts DFMO-induced cytostasis: 0.3 to 1 µM
[2]; T-47D breast cancer cells, substrate itself, read-out: Km for [3H]spermidine uptake
  Km: 4.4 ± 0.9 µM
[2]; T-47D cells, Lineweaver-Burke analysis, 0.01-300 μM substrate, read-out: Km for spermidine uptake (Table 2)
  Km: 4.4 ± 0.9 µM
